Test results from ChEMBL document CHEMBL1201862, “PubChem BioAssay data set” (2004).
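Assay format: 96-well plates, 48-hour exposure. At the GI50, growth is halved.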 Active and inactive are the calls of the source. Cut-off read from the data, not from the text of the source: active = GI50 up to about 1.1 µM and inactive = higher.

Experiments:
Test in all cases: NCI tumour cell line growth inhibition, 48 h
A549 = tested on: A549
LOX IMVI = tested on: LOX IMVI
OVCAR-4 = tested on: OVCAR-4
786-0 = tested on: 786-0
HCT-15 = tested on: HCT-15
OVCAR-3 = tested on: OVCAR-3
SF-295 = tested on: SF-295
KM-20L2 = tested on: KM-20L2
NCI-H460 = tested on: NCI-H460
Malme-3M = tested on: Malme-3M
RPMI-8226 = tested on: RPMI-8226
SNB-78 = tested on: SNB-78
ACHN = tested on: ACHN
NCI-H23 = tested on: NCI-H23
IGROV-1 = tested on: IGROV-1
COLO 205 = tested on: COLO 205
DLD-1 = tested on: DLD-1
K562 = tested on: K562
LXFL 529 = tested on: LXFL 529
M14 = tested on: M14
UO-31 = tested on: UO-31
SW-620 = tested on: SW-620
SF-539 = tested on: SF-539
M19-MEL = tested on: M19-MEL
CAKI-1 = tested on: CAKI-1
SN12C = tested on: SN12C
NCI-H226 = tested on: NCI-H226
HOP-92 = tested on: HOP-92
SK-OV-3 = tested on: SK-OV-3
NCI-H522 = tested on: NCI-H522
OVCAR-5 = tested on: OVCAR-5
SK-MEL-2 = tested on: SK-MEL-2
TK-10 = tested on: TK-10
XF498 = tested on: XF498
SF-268 = tested on: SF-268
HCT-116 = tested on: HCT-116
UACC-257 = tested on: UACC-257
SNB-75 = tested on: SNB-75
SK-MEL-5 = tested on: SK-MEL-5
MOLT-4 = tested on: MOLT-4
EKVX = tested on: EKVX
U-251 = tested on: U-251
CCRF-CEM = tested on: CCRF-CEM
OVCAR-8 = tested on: OVCAR-8
HCC 2998 = tested on: HCC 2998
KM12 = tested on: KM12
SR = tested on: SR
HOP-62 = tested on: HOP-62
HL-60 = tested on: HL-60
HT-29 = tested on: HT-29
SK-MEL-28 = tested on: SK-MEL-28
UACC-62 = tested on: UACC-62
SNB-19 = tested on: SNB-19
DMS-273 = tested on: DMS-273
HOP-18 = tested on: HOP-18
RXF 393 = tested on: RXF 393
BT-549 = tested on: BT-549
Hs-578T = tested on: Hs-578T
DU-145 = tested on: DU-145
MDA-MB-231 = tested on: MDA-MB-231
NCI/ADR-RES = tested on: NCI/ADR-RES
MDA-N = tested on: MDA-N
PC-3 = tested on: PC-3
T47D = tested on: T47D
MDA-MB-435 = tested on: MDA-MB-435
A498 = tested on: A498

## Cc1nc(N)nc(N)c1CCCCc1ccc(N)cc1
A549
  GI50: 0.668 µM (active)
LOX IMVI
  GI50: 1.09 µM (active)
OVCAR-4
  GI50: 10.6 µM (inactive)
786-0
  GI50: 0.728 µM (active)
HCT-15
  GI50: 4.09 µM
OVCAR-3
  GI50: 5.53 µM (inactive)
SF-295
  GI50: 1.94 µM (inactive)
KM-20L2
  GI50: 3.74 µM (inactive)
NCI-H460
  GI50: 0.959 µM (active)
Malme-3M
  GI50: 1.96 µM (inactive)
RPMI-8226
  GI50: 5.81 µM (inactive)
SNB-78
  GI50: 9.46 µM (inactive)
ACHN
  GI50: 4.12 µM (inactive)
NCI-H23
  GI50: 4.37 µM (inactive)
IGROV-1
  GI50: 3.35 µM (inactive)
COLO 205
  GI50: 10.4 µM (inactive)
DLD-1
  GI50: 6.43 µM (inactive)
K562
  GI50: 0.321 µM (active)
LXFL 529
  GI50: 6.46 µM (inactive)
M14
  GI50: 2.58 µM (inactive)
UO-31
  GI50: 13.2 µM (inactive)
SW-620
  GI50: 3.29 µM (inactive)
SF-539
  GI50: 7.98 µM (inactive)
M19-MEL
  GI50: 8.55 µM (inactive)
CAKI-1
  GI50: 9.66 µM (inactive)
SN12C
  GI50: 4.3 µM (inactive)
NCI-H226
  GI50: 25.8 µM (inactive)
HOP-92
  GI50: 3.93 µM (inactive)
SK-OV-3
  GI50: 2.88 µM (inactive)
NCI-H522
  GI50: 4.26 µM (inactive)
OVCAR-5
  GI50: 4.46 µM (inactive)
SK-MEL-2
  GI50: 9.06 µM (inactive)
TK-10
  GI50: 11.5 µM (inactive)
XF498
  GI50: 11.4 µM (inactive)
SF-268
  GI50: 0.995 µM (active)
HCT-116
  GI50: 0.569 µM (active)
UACC-257
  GI50: 5.07 µM (inactive)
SNB-75
  GI50: 11.9 µM (inactive)
SK-MEL-5
  GI50: 3.43 µM (inactive)
MOLT-4
  GI50: 1.58 µM (inactive)
EKVX
  GI50: 9.23 µM (inactive)
U-251
  GI50: 3.03 µM (inactive)
CCRF-CEM
  GI50: 3.01 µM (inactive)
OVCAR-8
  GI50: 3.18 µM (inactive)
HCC 2998
  GI50: 3.25 µM (inactive)
KM12
  GI50: 9.35 µM (inactive)
SR
  GI50: 1.28 µM (inactive)
HOP-62
  GI50: 5.11 µM (inactive)
HL-60
  GI50: 3.07 µM (inactive)
HT-29
  GI50: 0.729 µM (active)
SK-MEL-28
  GI50: 10.1 µM (inactive)
UACC-62
  GI50: 1.86 µM (inactive)
SNB-19
  GI50: 6.87 µM (inactive)

## O=c1oc(-c2ccccc2)cn1-c1ccccc1
LOX IMVI
  GI50: 94.8 µM (inactive)
OVCAR-4
  GI50: > 10 µM (inactive)
786-0
  GI50: > 100 µM (inactive)
KM-20L2
  GI50: 94.8 µM (inactive)
NCI-H460
  GI50: > 100 µM (inactive)
RPMI-8226
  GI50: > 100 µM (inactive)
SNB-78
  GI50: > 100 µM (inactive)
NCI-H23
  GI50: > 100 µM (inactive)
DLD-1
  GI50: > 100 µM (inactive)
K562
  GI50: > 100 µM (inactive)
LXFL 529
  GI50: > 100 µM (inactive)
M14
  GI50: > 100 µM (inactive)
SF-539
  GI50: 88.7 µM (inactive)
SN12C
  GI50: > 100 µM (inactive)
NCI-H226
  GI50: > 100 µM (inactive)
DMS-273
  GI50: > 100 µM (inactive)
NCI-H522
  GI50: 70.8 µM (inactive)
HOP-18
  GI50: 95.3 µM (inactive)
XF498
  GI50: > 100 µM (inactive)
HCT-116
  GI50: > 100 µM (inactive)
SNB-75
  GI50: > 100 µM (inactive)
MOLT-4
  GI50: > 100 µM (inactive)
RXF 393
  GI50: > 100 µM (inactive)
U-251
  GI50: > 100 µM (inactive)
CCRF-CEM
  GI50: > 100 µM (inactive)
HCC 2998
  GI50: > 100 µM (inactive)
HOP-62
  GI50: > 100 µM (inactive)
HL-60
  GI50: > 100 µM (inactive)
SK-MEL-28
  GI50: > 100 µM (inactive)
SNB-19
  GI50: > 100 µM (inactive)

## O=C1C=CC(=O)c2c1cc1ccccc1c2O
A549
  GI50: 16.7 µM (inactive)
LOX IMVI
  GI50: 2.72 µM (inactive)
OVCAR-4
  GI50: 2.33 µM (inactive)
786-0
  GI50: 7.67 µM (inactive)
HCT-15
  GI50: 4.8 µM
BT-549
  GI50: 9.38 µM (inactive)
OVCAR-3
  GI50: 2.12 µM (inactive)
SF-295
  GI50: 17.1 µM (inactive)
KM-20L2
  GI50: 19 µM (inactive)
Hs-578T
  GI50: 8.22 µM (inactive)
NCI-H460
  GI50: 19.1 µM (inactive)
Malme-3M
  GI50: 6.18 µM (inactive)
RPMI-8226
  GI50: 2.43 µM (inactive)
SNB-78
  GI50: 3.78 µM (inactive)
ACHN
  GI50: 2.84 µM (inactive)
NCI-H23
  GI50: 13 µM (inactive)
IGROV-1
  GI50: 5.28 µM (inactive)
COLO 205
  GI50: 2.4 µM (inactive)
DLD-1
  GI50: 1.66 µM (inactive)
K562
  GI50: 0.767 µM (active)
LXFL 529
  GI50: 1.9 µM (inactive)
M14
  GI50: 10.7 µM (inactive)
UO-31
  GI50: 3.15 µM (inactive)
SW-620
  GI50: 1.86 µM (inactive)
SF-539
  GI50: 11.6 µM (inactive)
M19-MEL
  GI50: 4.01 µM (inactive)
CAKI-1
  GI50: 4.21 µM (inactive)
SN12C
  GI50: 12.3 µM (inactive)
NCI-H226
  GI50: 20.1 µM (inactive)
DMS-273
  GI50: 12.7 µM (inactive)
HOP-92
  GI50: 1.8 µM (inactive)
SK-OV-3
  GI50: 18.4 µM (inactive)
DU-145
  GI50: 14.6 µM (inactive)
NCI-H522
  GI50: 1.9 µM (inactive)
OVCAR-5
  GI50: 18.4 µM (inactive)
SK-MEL-2
  GI50: 14.4 µM (inactive)
HOP-18
  GI50: 18.2 µM (inactive)
TK-10
  GI50: 4.24 µM (inactive)
XF498
  GI50: 3.01 µM (inactive)
MDA-MB-231
  GI50: 2.04 µM (inactive)
NCI/ADR-RES
  GI50: 6.18 µM (inactive)
SF-268
  GI50: 8.24 µM (inactive)
MDA-N
  GI50: 5.26 µM (inactive)
HCT-116
  GI50: 1.85 µM (inactive)
PC-3
  GI50: 6.03 µM (inactive)
UACC-257
  GI50: 3.18 µM (inactive)
SNB-75
  GI50: 18.1 µM (inactive)
SK-MEL-5
  GI50: 12.1 µM (inactive)
MOLT-4
  GI50: 0.387 µM (active)
EKVX
  GI50: 11.5 µM (inactive)
RXF 393
  GI50: 2.11 µM (inactive)
U-251
  GI50: 14 µM (inactive)
CCRF-CEM
  GI50: 0.391 µM (active)
OVCAR-8
  GI50: 2.58 µM (inactive)
HCC 2998
  GI50: 17.7 µM (inactive)
KM12
  GI50: 13.2 µM (inactive)
SR
  GI50: 0.428 µM (active)
HOP-62
  GI50: 16.7 µM (inactive)
HL-60
  GI50: 0.628 µM (active)
T47D
  GI50: 1.61 µM (inactive)
HT-29
  GI50: 7.53 µM (inactive)
MDA-MB-435
  GI50: 6.37 µM (inactive)
A498
  GI50: 13.5 µM (inactive)
SK-MEL-28
  GI50: 9.25 µM (inactive)
UACC-62
  GI50: 6.32 µM (inactive)
SNB-19
  GI50: 19.3 µM (inactive)
